Measured values reported in patent US6660742B2, “Compositions and methods of the use thereof achiral analogues of CC-1065 and the duocarmycins” (priority 2000, dated 2003).

Legend:
L1210 leukemia = conditions: carzelesin 400 μg/kg, adozelesin 100 μg/kg; cited from earlier work
melanoma = conditions: phase I clinical trial; cited from earlier work
[1] = mice; therapeutic doses; cited from earlier work
[2] = tested on: panel of 60 human cancer cell lines; experiment: NCI in-vitro cytotoxicity screen, whole panel; assay type: cell-based
[3] = favoring the natural (+)-isomer; cited from earlier work

Method for BT-549: (§1) The compounds of this invention were also tested against the panel of 60 human cancer cell lines at the National Cancer Institute, Bethesda, Md. (44). The cytrotoxicity studies were conducted using a 48 hour exposure, and measuring the optical density of sulforhodamide B-derived color.
Method for CCRF-CEM: (§2) The compounds of this invention were also tested against the panel of 60 human cancer cell lines at the National Cancer Institute, Bethesda, Md. […] The cytrotoxicity studies were conducted using a 48 hour exposure, and measuring the optical density of sulforhodamide B-derived color.
Method for HS 578T: as §1
Method for HT29: as §2
Method for K-562: as §2
Method for LOX IMVI: as §1
Method for MOLT-4: as §2
Method for NCI-H23: as §2
Method for OVCAR-8: as §1
Method for SF-268: as §1
Method for SR: as §2
Method for TK-10: as §2

## Cc1c[nH]c2c1[C@@]13C[C@@H]1CN(C(=O)c1cc4cc(NC(=O)c5cc6ccccc6o5)ccc4[nH]1)C3=CC2=O [adozelesin]
L1210 leukemia
  ILS: 90±11%
  survival: 0/6
melanoma
  clinical response: partial response
[1]
  delayed lethality / delayed toxicity: devoid of the delayed toxicity problem

## COc1cc2cc(C(=O)Nc3cc(O)ccc3CCCl)[nH]c2c(OC)c1OC [Compound 3, 4-(2-Chloroethyl)-3-(5,6,7-trimethoxyindole-2-carboxamino)phenol]
[2]; 48 hour exposure
  range of activity: micromolar range
[2]; leukemia cells
  activity against leukemia cells: none of these compounds showed much activity
[2]; melanoma cells
  activity against melanoma cells: active
[2]; solid tumors cells
  activity against solid tumors cells: strong activity
CCRF-CEM
  CC50: > 100 µM
K-562
  CC50: > 100 µM
MOLT-4
  CC50: > 100 µM
SR
  CC50: > 100 µM
NCI-H23
  CC50: > 100 µM
NCI-H322M
  CC50: > 100 µM
  GI50: 2.81 µM
HT29
  CC50: > 100 µM
SF-268
  CC50: > 100 µM
LOX IMVI
  CC50: > 100 µM
OVCAR-8
  CC50: > 100 µM
TK-10
  CC50: 23.5 µM
HS 578T
  CC50: > 100 µM
BT-549
  CC50: > 100 µM

## CPI-In-In
[3]
  difference in cytotoxicity between enantiomers: about 250 fold
